Assay results taken from patent publication US11945822B2, “Pyrazolo-triazine and/or pyrazolo-pxrimidine derivatives as selective inhibitor of cyclin dependent kinase” (QURIENT CO., LTD., priority 2018, dated 2024).

These compounds were tested against T1, CDK1/Cyclin B (Homo sapiens, UniProt P06493) (assay: Enzymatic assay for CDK1 (FRET based LANCE Ultra kinase assay)). Settings: read-out: CDK1 enzymatic activity (IC50 range).
T1 construct: purchased Invitrogen PR4768C
Type: biochemical
Outline: (§1)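 LANCE Ultra TR-FRET: ULight-MBP peptide (68 nM) with ATP at Km, […], 60 min at 23° C. EDTA plus Eu-anti-phospho-MBP added, another 60 min, then 665/615 nm emission read. Compounds tested as 8-dose 4-fold DMSO dilutions.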

T1 sequence (P06493 whole entry): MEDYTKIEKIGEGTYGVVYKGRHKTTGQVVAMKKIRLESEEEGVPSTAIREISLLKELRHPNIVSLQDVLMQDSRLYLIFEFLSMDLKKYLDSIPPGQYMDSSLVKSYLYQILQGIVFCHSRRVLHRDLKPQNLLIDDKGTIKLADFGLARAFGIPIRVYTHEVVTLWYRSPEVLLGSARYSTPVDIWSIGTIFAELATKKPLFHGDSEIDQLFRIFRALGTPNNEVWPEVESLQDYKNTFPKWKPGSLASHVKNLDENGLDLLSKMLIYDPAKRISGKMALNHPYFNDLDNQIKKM
T1 sequence (P14635 whole entry partner): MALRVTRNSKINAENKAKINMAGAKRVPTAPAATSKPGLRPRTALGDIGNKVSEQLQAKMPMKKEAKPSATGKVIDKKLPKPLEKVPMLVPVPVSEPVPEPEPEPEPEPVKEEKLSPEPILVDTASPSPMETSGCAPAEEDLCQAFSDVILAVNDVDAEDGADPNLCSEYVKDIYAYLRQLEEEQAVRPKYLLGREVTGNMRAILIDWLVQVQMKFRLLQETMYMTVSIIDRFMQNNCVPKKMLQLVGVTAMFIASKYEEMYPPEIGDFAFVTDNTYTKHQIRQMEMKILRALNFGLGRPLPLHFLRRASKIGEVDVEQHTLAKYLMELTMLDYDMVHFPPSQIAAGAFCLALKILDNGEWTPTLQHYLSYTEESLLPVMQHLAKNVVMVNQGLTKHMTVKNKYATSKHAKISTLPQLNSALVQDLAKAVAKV

| IC50 | Structure (SMILES) |
| --- | --- |
| > 1 µM | CC(C)c1cnn2c(NCc3ccccc3NC(=O)c3ccccc3)nc(N3CCC(N)CC3)nc12 [Compound 87] |
| > 1 µM | CC(C)c1cnn2c(NCc3cccc4ccc(NC(=O)CCCN(C)C)nc34)nc(N3CCC(N)CC3)nc12 [Compound 95] |
| > 1 µM | CC(C)c1cnn2c(NCc3ccccc3-c3[nH]c4ccccc4c3Cl)nc(N3CCC(N)CC3)nc12 [Compound 119] |
| > 1 µM | CC(C)c1cnn2c(NCc3ccccc3-n3cc4cc(C#N)ccc4n3)nc(N3CCC(N)CC3)nc12 [Compound 120] |

Each compound was assayed against T2, CDK2/Cyclin A (Homo sapiens, UniProt P24941) (assay: Enzymatic assay for CDK2 (FRET based LANCE Ultra kinase assay)). Settings: read-out: CDK2 enzymatic activity (IC50 range).
T2 construct: purchased Invitrogen PV6290
Type: biochemical
Outline: as §1

| IC50 | Structure (SMILES) |
| --- | --- |
| > 1 µM | CC(C)c1cnn2c(NCc3ccccc3NC(=O)c3ccccc3)nc(N3CCC(N)CC3)nc12 [Compound 87] |
| 0.1 to 1 µM | CC(C)c1cnn2c(NCc3cccc4ccc(NC(=O)CCCN(C)C)nc34)nc(N3CCC(N)CC3)nc12 [Compound 95] |
| 0.1 to 1 µM | CC(C)c1cnn2c(NCc3ccccc3-c3[nH]c4ccccc4c3Cl)nc(N3CCC(N)CC3)nc12 [Compound 119] |
| 0.1 to 1 µM | CC(C)c1cnn2c(NCc3ccccc3-n3cc4cc(C#N)ccc4n3)nc(N3CCC(N)CC3)nc12 [Compound 120] |

Each compound was assayed against T3, CDK5/p25 (Homo sapiens, UniProt Q00535) (assay: Enzymatic assay for CDK5 (FRET based LANCE Ultra kinase assay)). Settings: read-out: CDK5 enzymatic activity (IC50 range).
T3 construct: purchased Invitrogen PR8543B
T3 sequence (Q00535 whole entry): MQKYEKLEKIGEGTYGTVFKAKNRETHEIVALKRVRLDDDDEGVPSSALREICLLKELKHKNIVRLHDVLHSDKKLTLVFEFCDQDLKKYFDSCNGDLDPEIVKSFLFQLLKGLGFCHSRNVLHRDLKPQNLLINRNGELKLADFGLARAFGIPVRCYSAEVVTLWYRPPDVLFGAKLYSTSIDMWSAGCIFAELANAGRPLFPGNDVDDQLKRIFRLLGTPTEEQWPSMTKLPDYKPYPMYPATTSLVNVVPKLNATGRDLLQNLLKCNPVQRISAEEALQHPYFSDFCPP
T3 sequence (Q15078 99-307 partner limits assumed): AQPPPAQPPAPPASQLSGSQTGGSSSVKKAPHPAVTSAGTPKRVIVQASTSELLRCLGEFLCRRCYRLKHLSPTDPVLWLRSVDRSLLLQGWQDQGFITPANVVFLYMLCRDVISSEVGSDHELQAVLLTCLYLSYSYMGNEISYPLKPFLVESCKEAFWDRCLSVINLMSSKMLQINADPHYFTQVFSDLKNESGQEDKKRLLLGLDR
Type: biochemical
Outline: as §1

| IC50 | Structure (SMILES) |
| --- | --- |
| 0.1 to 1 µM | CC(C)c1cnn2c(NCc3ccccc3NC(=O)c3ccccc3)nc(N3CCC(N)CC3)nc12 [Compound 87] |
| 0.1 to 1 µM | CC(C)c1cnn2c(NCc3cccc4ccc(NC(=O)CCCN(C)C)nc34)nc(N3CCC(N)CC3)nc12 [Compound 95] |
| 0.1 to 1 µM | CC(C)c1cnn2c(NCc3ccccc3-c3[nH]c4ccccc4c3Cl)nc(N3CCC(N)CC3)nc12 [Compound 119] |
| 0.1 to 1 µM | CC(C)c1cnn2c(NCc3ccccc3-n3cc4cc(C#N)ccc4n3)nc(N3CCC(N)CC3)nc12 [Compound 120] |

The compounds below were run against T4, CDK7/Cyclin H/MNAT1 (Homo sapiens, UniProt P50613) (assay: Enzymatic assay for CDK7 (FRET based LANCE Ultra kinase assay)). Settings: CDK7 over CDK1.
T4 construct: purchased Invitrogen PR6749B
T4 sequence (P50613 whole entry): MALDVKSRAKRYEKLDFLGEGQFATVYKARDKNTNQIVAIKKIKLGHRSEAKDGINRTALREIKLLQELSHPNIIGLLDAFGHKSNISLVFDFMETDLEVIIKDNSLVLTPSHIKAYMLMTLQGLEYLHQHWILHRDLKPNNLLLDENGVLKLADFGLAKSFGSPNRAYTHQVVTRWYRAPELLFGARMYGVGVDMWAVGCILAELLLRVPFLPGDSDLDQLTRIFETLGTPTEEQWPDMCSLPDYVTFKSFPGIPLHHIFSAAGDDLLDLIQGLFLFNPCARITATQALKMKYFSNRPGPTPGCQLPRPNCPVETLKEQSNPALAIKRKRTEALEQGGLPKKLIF
T4 sequence (P51946 whole entry partner): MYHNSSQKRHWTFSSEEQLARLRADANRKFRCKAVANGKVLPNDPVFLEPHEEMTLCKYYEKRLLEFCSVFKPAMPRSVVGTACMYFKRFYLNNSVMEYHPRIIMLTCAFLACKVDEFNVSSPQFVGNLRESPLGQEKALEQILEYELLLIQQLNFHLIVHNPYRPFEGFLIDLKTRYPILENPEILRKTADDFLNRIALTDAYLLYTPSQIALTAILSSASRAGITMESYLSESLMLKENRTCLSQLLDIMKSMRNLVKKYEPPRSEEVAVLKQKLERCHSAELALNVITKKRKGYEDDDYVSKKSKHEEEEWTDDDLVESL
T4 sequence (P51948 whole entry partner): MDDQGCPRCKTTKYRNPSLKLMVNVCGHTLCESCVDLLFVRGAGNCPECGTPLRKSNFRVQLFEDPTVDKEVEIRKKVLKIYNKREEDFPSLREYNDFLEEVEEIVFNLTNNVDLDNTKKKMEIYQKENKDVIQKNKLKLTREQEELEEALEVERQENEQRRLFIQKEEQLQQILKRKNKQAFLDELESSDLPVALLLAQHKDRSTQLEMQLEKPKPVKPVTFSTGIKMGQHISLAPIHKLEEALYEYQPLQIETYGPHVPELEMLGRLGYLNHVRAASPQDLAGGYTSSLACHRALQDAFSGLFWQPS
Type: biochemical
Outline: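 LANCE Ultra TR-FRET kinase assay using a ULight-labeled peptide substrate and a Eu-labeled anti-phospho antibody, with ATP at its Km. Purified CDK/cyclin complex was added to compound after brief centrifugation.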

| CDK1/CDK7: Selectivity of CDK7 inhibition over CDK1 inhibition | Structure (SMILES) |
| --- | --- |
| A (A=greater than 200 fold) | CC(C)c1cnn2c(NCc3ccccc3NC(=O)c3ccccc3)nc(N3CCC(N)CC3)nc12 [Compound 87] |
| A (A=greater than 200 fold) | CC(C)c1cnn2c(NCc3cccc4ccc(NC(=O)CCCN(C)C)nc34)nc(N3CCC(N)CC3)nc12 [Compound 95] |
| A (A=greater than 200 fold) | CC(C)c1cnn2c(NCc3ccccc3-c3[nH]c4ccccc4c3Cl)nc(N3CCC(N)CC3)nc12 [Compound 119] |
| A (A=greater than 200 fold) | CC(C)c1cnn2c(NCc3ccccc3-n3cc4cc(C#N)ccc4n3)nc(N3CCC(N)CC3)nc12 [Compound 120] |

Same assay, conditions: CDK7 over CDK2

| CDK2/CDK7: Selectivity of CDK7 inhibition over CDK2 inhibition | Structure (SMILES) |
| --- | --- |
| A (A=greater than 200 fold) | CC(C)c1cnn2c(NCc3ccccc3NC(=O)c3ccccc3)nc(N3CCC(N)CC3)nc12 [Compound 87] |
| A (A=greater than 200 fold) | CC(C)c1cnn2c(NCc3cccc4ccc(NC(=O)CCCN(C)C)nc34)nc(N3CCC(N)CC3)nc12 [Compound 95] |
| A (A=greater than 200 fold) | CC(C)c1cnn2c(NCc3ccccc3-n3cc4cc(C#N)ccc4n3)nc(N3CCC(N)CC3)nc12 [Compound 120] |

| Structure (SMILES) | CDK2/CDK7: Selectivity of CDK7 inhibition over CDK2 inhibition |
| --- | --- |
| CC(C)c1cnn2c(NCc3ccccc3-c3[nH]c4ccccc4c3Cl)nc(N3CCC(N)CC3)nc12 [Compound 119] | B (B=less than 200 fold, but greater than 20 fold) |

Same assay, conditions: CDK7 over CDK5

| Structure (SMILES) | CDK5/CDK7: Selectivity of CDK7 inhibition over CDK5 inhibition |
| --- | --- |
| CC(C)c1cnn2c(NCc3ccccc3NC(=O)c3ccccc3)nc(N3CCC(N)CC3)nc12 [Compound 87] | B (B=less than 200 fold, but greater than 20 fold) |
| CC(C)c1cnn2c(NCc3cccc4ccc(NC(=O)CCCN(C)C)nc34)nc(N3CCC(N)CC3)nc12 [Compound 95] | B (B=less than 200 fold, but greater than 20 fold) |
| CC(C)c1cnn2c(NCc3ccccc3-c3[nH]c4ccccc4c3Cl)nc(N3CCC(N)CC3)nc12 [Compound 119] | B (B=less than 200 fold, but greater than 20 fold) |
| CC(C)c1cnn2c(NCc3ccccc3-n3cc4cc(C#N)ccc4n3)nc(N3CCC(N)CC3)nc12 [Compound 120] | B (B=less than 200 fold, but greater than 20 fold) |

Same assay, conditions: read-out: CDK7 enzymatic activity (IC50 range)

| IC50 | Structure (SMILES) |
| --- | --- |
| < 0.1 µM | CC(C)c1cnn2c(NCc3ccccc3NC(=O)c3ccccc3)nc(N3CCC(N)CC3)nc12 [Compound 87] |
| < 0.1 µM | CC(C)c1cnn2c(NCc3cccc4ccc(NC(=O)CCCN(C)C)nc34)nc(N3CCC(N)CC3)nc12 [Compound 95] |
| < 0.1 µM | CC(C)c1cnn2c(NCc3ccccc3-c3[nH]c4ccccc4c3Cl)nc(N3CCC(N)CC3)nc12 [Compound 119] |
| < 0.1 µM | CC(C)c1cnn2c(NCc3ccccc3-n3cc4cc(C#N)ccc4n3)nc(N3CCC(N)CC3)nc12 [Compound 120] |

The compounds below were run on H460 (assay: Cellular H460 viability assay (CellTiter-Glo, 72 hours)). Settings: Homo sapiens, NCI-H460.
Type: cell-based
Outline: (§2)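 72 h treatment, 37 °C, 5% CO2; DMSO ctrl, final <0.1%; CellTiter-Glo luminescence; n=2.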

| IC50 | Structure (SMILES) |
| --- | --- |
| < 1 µM | CC(C)c1cnn2c(NCc3ccccc3-c3[nH]c4ccccc4c3Cl)nc(N3CCC(N)CC3)nc12 [Compound 119] |
| < 1 µM | CC(C)c1cnn2c(NCc3ccccc3-n3cc4cc(C#N)ccc4n3)nc(N3CCC(N)CC3)nc12 [Compound 120] |

Each compound was assayed on MV4-11 (assay: Cellular MV4-11 viability assay (CellTiter-Glo, 72 hours)). Settings: Homo sapiens.
Type: cell-based
Outline: as §2

| IC50 | Structure (SMILES) |
| --- | --- |
| 1 to 10 µM | CC(C)c1cnn2c(NCc3ccccc3-c3[nH]c4ccccc4c3Cl)nc(N3CCC(N)CC3)nc12 [Compound 119] |
| < 1 µM | CC(C)c1cnn2c(NCc3ccccc3-n3cc4cc(C#N)ccc4n3)nc(N3CCC(N)CC3)nc12 [Compound 120] |

The compounds below were run on MOLT-4 (assay: Cellular MOLT-4 viability assay (CellTiter-Glo, 72 hours)). Settings: Homo sapiens, MOLT4 viability assay.
Type: cell-based
Outline: as §2

| IC50 | Structure (SMILES) |
| --- | --- |
| 1 to 10 µM | CC(C)c1cnn2c(NCc3ccccc3NC(=O)c3ccccc3)nc(N3CCC(N)CC3)nc12 [Compound 87] |
| 1 to 10 µM | CC(C)c1cnn2c(NCc3cccc4ccc(NC(=O)CCCN(C)C)nc34)nc(N3CCC(N)CC3)nc12 [Compound 95] |

Each compound was assayed on RPMI-8226 (assay: Cellular RPMI-8226 viability assay (CellTiter-Glo, 72 hours)). Settings: Homo sapiens.
Type: cell-based
Procedure: All cell lines were routinely tested for mycoplasma.
The effect of the CDK7 inhibitor to inhibit the growth of target cancer cells was evaluated through the 72 hours time period of viability assay. Briefly, the candidate cell line ware plated in 96 well plate at the following density of cells respectively. […] DMSO solvent without compound served as a control and final DMSO concentration less than 0.1%. After 72 hours of incubation at 37° C., 5% CO2 incubator, cells were analyzed for the viability using the CellTiter-Glo Luminescent Cell Viability Assay (Promega, Cat #G7570). All viability assays were performed in duplicate and Luminescence was read using an Envision (Perkin Elmer, USA). Data was analyzed using XLfit software.

| IC50 | Structure (SMILES) |
| --- | --- |
| < 1 µM | CC(C)c1cnn2c(NCc3ccccc3NC(=O)c3ccccc3)nc(N3CCC(N)CC3)nc12 [Compound 87] |
| < 1 µM | CC(C)c1cnn2c(NCc3cccc4ccc(NC(=O)CCCN(C)C)nc34)nc(N3CCC(N)CC3)nc12 [Compound 95] |
| 1 to 10 µM | CC(C)c1cnn2c(NCc3ccccc3-c3[nH]c4ccccc4c3Cl)nc(N3CCC(N)CC3)nc12 [Compound 119] |
| < 1 µM | CC(C)c1cnn2c(NCc3ccccc3-n3cc4cc(C#N)ccc4n3)nc(N3CCC(N)CC3)nc12 [Compound 120] |
